Patent publication US11576922B2, “CD73 inhibitors” (ORIC Pharmaceuticals, Inc., priority 2017, dated 2023)

Biological target: T1, CD73 (Homo sapiens, UniProt P21589)
T1 sequence (P21589 27-549): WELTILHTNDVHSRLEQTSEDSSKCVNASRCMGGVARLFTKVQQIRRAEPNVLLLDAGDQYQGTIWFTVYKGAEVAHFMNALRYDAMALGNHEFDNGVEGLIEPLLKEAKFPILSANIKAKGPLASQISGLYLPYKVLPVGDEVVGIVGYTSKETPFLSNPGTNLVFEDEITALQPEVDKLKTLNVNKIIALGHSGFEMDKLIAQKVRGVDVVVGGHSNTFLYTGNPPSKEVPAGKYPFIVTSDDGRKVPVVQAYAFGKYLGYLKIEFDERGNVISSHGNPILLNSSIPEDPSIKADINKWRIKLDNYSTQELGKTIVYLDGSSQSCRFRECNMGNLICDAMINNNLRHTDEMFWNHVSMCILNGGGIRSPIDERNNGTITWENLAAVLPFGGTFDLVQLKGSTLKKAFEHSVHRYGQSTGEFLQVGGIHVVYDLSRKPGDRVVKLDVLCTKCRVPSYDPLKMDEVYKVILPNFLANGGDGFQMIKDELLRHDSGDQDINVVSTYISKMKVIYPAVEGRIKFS
Assay: Example A1: Biochemical Assay (CD73 inhibition, Malachite Green detection of AMP hydrolysis)
Conditions: Biochemical IC50, CD73 0.3208 nM, AMP 15 μM, Tris-HCl pH 7.4, Malachite Green, absorbance 620 nm
Description: Example A1: Biochemical Assay
Assay Reaction Conditions
• Assay Volume: 70 μl • Reaction Volume: 50 μl • CD73: 0.3208 nM • AMP: 15 μM • Assay Buffer: 2 5 mM Tris-HCL, pH 7.4, 0.01% Brij-35, 0.01% BSA, 5 mM MgCl2 Assay Procedure:
Made dose titration of testing compounds in assay buffer, 10 points ½ log titrations in duplicates starting at 100 μM.
Added 25 μl of CD73 to each well for a final concentration of […].
Incubated at RT for 15 min.
Added 25 μl of AMP to each well for a final concentration of 15 μM.
Incubated at RT for 10 min.
Added 10 μl of Malachite Green Reagent A, incubate at RT for 10 min.
Added 10 μl of Malachite Green Reagent B, incubate at RT for 45 min.
Read the Absorbance on Envision plate reader using excitation filter: Cy5 […].
The ability of the compounds disclosed herein to inhibit CD73 activity was quantified and the respective IC50 values were determined. Table 1 provides the biochemical IC50 values of compounds disclosed herein.

| Structure (SMILES) | IC50 |
| --- | --- |
| O=P(O)(O)C[P@](=O)(OC[C@H]1O[C@@H](n2nnc3c(NCc4ccccc4Cl)nc(Cl)nc32)[C@H](O)[C@@H]1O)Oc1ccccc1 [Example 32, (((S)-(((2R,3S,4R,5R)-5-(5-chloro-7-((2-chlorobenzyl)amino)-3H-[1,2,3]triazolo[4,5-d]pyrimidin-3-yl)-3,4-dihydroxytetrahydrofuran-2-yl)methoxy)(phenoxy)phosphoryl)methyl) phosphonic acid] | > 1000 nM |

Same assay, conditions: CD73 0.3208 nM, AMP 15 μM, Tris-HCl pH 7.4, Malachite Green, absorbance 620 nm; read-out: Biochemical IC50

| Structure (SMILES) | IC50 |
| --- | --- |
| O=P(O)(O)CP(=O)(O)OC[C@H]1O[C@@H](n2ncc3c(NCc4ccccc4Cl)nc(Cl)nc32)C[C@@H]1O [Example 41, (((((2R,3S,5R)-5-(6-chloro-4-((2-chlorobenzyl)amino)-1H-pyrazolo[3,4-d]pyrimidin-1-yl)-3-hydroxytetrahydrofuran-2-yl)methoxy)(hydroxy)phosphoryl)methyl) phosphonic acid] | 100 to 1000 nM |
| C[C@H](Nc1nc(Cl)nc2c1cnn2[C@@H]1O[C@H](COP(=O)(O)CP(=O)(O)O)[C@@H](O)[C@H]1O)c1ccccc1Cl [Example 46, (((((2R,3S,4R,5R)-5-(6-chloro-4-(((S)-1-(2-chlorophenyl)ethyl)amino)-1H-pyrazolo[3,4-d]pyrimidin-1-yl)-3,4-dihydroxytetrahydrofuran-2-yl)methoxy)(hydroxy)phosphoryl)methyl) phosphonic acid] | > 1000 nM |
| O=P(O)(O)CP(=O)(O)OC[C@H]1C[C@@H](n2nnc3c(NCc4ccccc4Cl)nc(Cl)nc32)[C@H](O)[C@@H]1O [Example 2, (((((1R,2R,3S,4R)-4-(5-chloro-7-((2-chlorobenzyl)amino)-3H-[1,2,3]triazolo[4,5-d]pyrimidin-3-yl)-2,3-dihydroxycyclopentyl)methoxy)(hydroxy)phosphoryl)methyl)phosphonic acid] | 100 to 1000 nM |
| O=P(O)(O)CP(=O)(O)OC[C@H]1O[C@@H](n2nnc3c(N4CCC[C@H]4c4ccccc4)nc(Cl)nc32)[C@H](O)[C@@H]1O [Example 11, (((((2R,3S,4R,5R)-5-(5-chloro-7-((S)-2-phenylpyrrolidin-1-yl)-3H-[1,2,3]triazolo[4,5-d]pyrimidin-3-yl)-3,4-dihydroxytetrahydrofuran-2-yl)methoxy)(hydroxy)phosphoryl)methyl) phosphonic acid] | 100 to 1000 nM |
| COP(=O)(CP(=O)(O)O)OC[C@H]1O[C@@H](n2ncc3c(NCc4ccccc4Cl)nc(Cl)nc32)[C@H](O)[C@@H]1O (stereo partly drawn) [Example 49, (((((2R,3S,4R,5R)-5-(6-chloro-4-((2-chlorobenzyl)amino)-1H-pyrazolo[3,4-d]pyrimidin-1-yl)-3,4-dihydroxytetrahydrofuran-2-yl)methoxy)(methoxy)phosphoryl)methyl) phosphonic acid] | < 100 nM |
| O=P(O)(O)CP(=O)(O)OC[C@H]1O[C@@H](n2nnc3c(N4CCC[C@@H]4c4ccccc4)nc(Cl)nc32)[C@H](O)[C@@H]1O [Example 17, (((((2R,3S,4R,5R)-5-(5-chloro-7-((R)-2-phenylpyrrolidin-1-yl)-3H-[1,2,3]triazolo[4,5-d]pyrimidin-3-yl)-3,4-dihydroxytetrahydrofuran-2-yl)methoxy)(hydroxy)phosphoryl)methyl) phosphonic acid] | 100 to 1000 nM |
| O=P(O)(O)CP(=O)(O)OC[C@H]1O[C@@H](n2nnc3c(NCC4CC4)nc(Cl)nc32)[C@H](O)[C@@H]1O [Example 5, (((((2R,3S,4R,5R)-5-(5-chloro-7-((cyclopropylmethyl)amino)-3H-[1,2,3]triazolo[4,5-d]pyrimidin-3-yl)-3,4-dihydroxytetrahydrofuran-2-yl)methoxy)(hydroxy)phosphoryl)methyl) phosphonic acid] | 100 to 1000 nM |
| O=P(O)(O)CP(=O)(O)OC[C@H]1O[C@@H](n2nnc3c(NC[C@H]4CCOC4)nc(Cl)nc32)[C@H](O)[C@@H]1O [Example 3, (((((2R,3S,4R,5R)-5-(5-chloro-7-((((R)-tetrahydrofuran-3-yl)methyl)amino)-3H-[1,2,3]triazolo[4,5-d]pyrimidin-3-yl)-3,4-dihydroxytetrahydrofuran-2-yl)methoxy)(hydroxy)phosphoryl)methyl) phosphonic acid] | 100 to 1000 nM |
| CN(Cc1ccccc1)c1nc(Cl)nc2c1nnn2[C@@H]1O[C@H](COP(=O)(O)CP(=O)(O)O)C[C@H]1O [Example 22, (((((2S,4R,5R)-5-(7-(benzyl(methyl)amino)-5-chloro-3H-[1,2,3]triazolo[4,5-d]pyrimidin-3-yl)-4-hydroxytetrahydrofuran-2-yl)methoxy)(hydroxy)phosphoryl)methyl)phosphonic acid] | 100 to 1000 nM |
| COP(=O)(CP(=O)(O)O)OC[C@H]1OC(n2nnc3c(NC4CCc5ccccc54)nc(Cl)nc32)[C@H](O)[C@@H]1O (stereo partly drawn) [Example 34, (((((2R,3S,4R,5S)-5-(5-chloro-7-(((S)-2,3-dihydro-1H-inden-1-yl)amino)-3H-[1,2,3]triazolo[4,5-d]pyrimidin-3-yl)-3,4-dihydroxytetrahydrofuran-2-yl)methoxy)(methoxy)phosphoryl)methyl) phosphonic acid] | 100 to 1000 nM |

Continued, values first:

| IC50 | Structure (SMILES) |
| --- | --- |
| < 100 nM | C[C@@]1(O)[C@@H](COP(=O)(O)CP(=O)(O)O)O[C@@H](n2ncc3c(NCc4ccccc4Cl)nc(Cl)nc32)[C@@H]1O [Example 40, (((((2R,3S,4R,5R)-5-(6-Chloro-4-((2-chlorobenzyl)amino)-1H-pyrazolo[3,4-d]pyrimidin-1-yl)-3,4-dihydroxy-3-methyltetrahydrofuran-2-yl)methoxy)(hydroxy)phosphoryl)methyl)phosphonic acid] |
| < 100 nM | O=P(O)(O)CP(=O)(O)OC[C@@H]1C[C@@H](O)[C@H](n2nnc3c(NCc4ccccc4Cl)nc(Cl)nc32)O1 [Example 23, (((((2S,4R,5R)-5-(5-chloro-7-((2-chlorobenzyl)amino)-3H-[1,2,3]triazolo[4,5-d]pyrimidin-3-yl)-4-hydroxytetrahydrofuran-2-yl)methoxy)(hydroxy)phosphoryl)methyl)phosphonic acid] |
| < 100 nM | O=P(O)(O)CP(=O)(O)OC[C@H]1O[C@@H](n2nnc3c(NCc4ccccc4Cl)nc(Cl)nc32)[C@H](O)[C@@H]1O [Example 6, (((((2R,3S,4R,5R)-5-(5-chloro-7-((2-chlorobenzyl)amino)-3H-[1,2,3]triazolo[4,5-d]pyrimidin-3-yl)-3,4-dihydroxytetrahydrofuran-2-yl)methoxy)(hydroxy)phosphoryl)methyl) phosphonic acid] |
| < 100 nM | O=P(O)(O)CP(=O)(O)OC[C@H]1O[C@@H](n2nnc3c(N4CCCC[C@H]4c4ccccc4)nc(Cl)nc32)[C@H](O)[C@@H]1O [Example 16, (((((2R,3S,4R,5R)-5-(5-chloro-7-((S)-2-phenylpiperidin-1-yl)-3H-[1,2,3]triazolo[4,5-d]pyrimidin-3-yl)-3,4-dihydroxytetrahydrofuran-2-yl)methoxy)(hydroxy)phosphoryl)methyl) phosphonic acid] |
| < 100 nM | C[C@H](Nc1nc(Cl)nc2c1nnn2[C@@H]1O[C@H](COP(=O)(O)CP(=O)(O)O)[C@@H](O)[C@H]1O)c1ccccc1 [Example 8, (((((2R,3S,4R,5R)-5-(5-chloro-7-(((S)-1-phenylethyl)amino)-3H-[1,2,3]triazolo[4,5-d]pyrimidin-3-yl)-3,4-dihydroxytetrahydrofuran-2-yl)methoxy)(hydroxy)phosphoryl)methyl) phosphonic acid] |
| < 100 nM | C[C@H](c1ccccc1)N(C)c1nc(Cl)nc2c1cnn2[C@@H]1O[C@H](COP(=O)(O)CP(=O)(O)O)[C@@H](O)[C@H]1O [Example 42, (((((2R,3S,4R,5R)-5-(6-chloro-4-(methyl((R)-1-phenylethyl)amino)-1H-pyrazolo[3,4-d]pyrimidin-1-yl)-3,4-dihydroxytetrahydrofuran-2-yl)methoxy)(hydroxy)phosphoryl)methyl) phosphonic acid] |
| < 100 nM | Cc1nn([C@@H]2O[C@H](COP(=O)(O)CP(=O)(O)O)[C@@H](O)[C@H]2O)c2nc(Cl)nc(NCc3ccccc3Cl)c12 [Example 44, (((((2R,3S,4R,5R)-5-(6-chloro-4-((2-chlorobenzyl)amino)-3-methyl-1H-pyrazolo[3,4-d]pyrimidin-1-yl)-3,4-dihydroxytetrahydrofuran-2-yl)methoxy)(hydroxy)phosphoryl)methyl) phosphonic acid] |
| < 100 nM | C[C@@H](c1ccccc1Cl)N(C)c1nc(Cl)nc2c1nnn2[C@@H]1O[C@H](COP(=O)(O)CP(=O)(O)O)[C@@H](O)[C@H]1O [Example 12, (((((2R,3S,4R,5R)-5-(5-chloro-7-(((S)-1-(2-chlorophenyl)ethyl)(methyl)amino)-3H-[1,2,3]triazolo[4,5-d]pyrimidin-3-yl)-3,4-dihydroxytetrahydrofuran-2-yl)methoxy)(hydroxy)phosphoryl)methyl) phosphonic acid] |
